Data taken from US20250388589A1, “TRICYCLIC HETEROCYCLIC DERIVATIVES, COMPOSITIONS AND USES THEREOF” (Danatlas Pharmaceuticals Co., Ltd., priority 2022, published 2025).
pIC50: −log10 of the molar value.

Key:
Kuramochi cell line = test: Cell Viability Assay (Cell Titer-Glo, 7 days); type: cell-based; details: 168 h, Kuramochi cells, 7 days incubation, read-out: PARG Cell viability (IC50)
Outline: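 IC50 from a four-parameter fit of CellTiter-Glo luminescence, scaled between DMSO-treated (high) and medium-only (low) wells. Kuramochi cells (400/well, RPMI/10% FBS) exposed 7 days at 37 °C to 9 concentrations, 3-fold steps, in duplicate.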

[1] = biological target: hPARG (C-terminal His6-tag) (Homo sapiens (Human), UniProt Q86W56); test: PARG Enzymatic Activity Assay (HTRF); type: biochemical; details: hPARG 65 pM final, biotinylated-NAD ribosylated PARP1 8 nM final
Outline: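 Readout is time-resolved fluorescence at 620 and 665 nm after 60 min RT detection with streptavidin-Eu cryptate and anti-6HIS-XL665; IC50 by 4-parameter fit, 1% DMSO and no-enzyme controls. Reaction: 8 nM final ribosylated PARP1 substrate for 10 min RT, following 60 min RT enzyme (65 pM)–compound preincubation in Tris pH 7.4 buffer with EDTA, DTT, KCl.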

Chain of hPARG (C-terminal His6-tag) (Q86W56 whole entry): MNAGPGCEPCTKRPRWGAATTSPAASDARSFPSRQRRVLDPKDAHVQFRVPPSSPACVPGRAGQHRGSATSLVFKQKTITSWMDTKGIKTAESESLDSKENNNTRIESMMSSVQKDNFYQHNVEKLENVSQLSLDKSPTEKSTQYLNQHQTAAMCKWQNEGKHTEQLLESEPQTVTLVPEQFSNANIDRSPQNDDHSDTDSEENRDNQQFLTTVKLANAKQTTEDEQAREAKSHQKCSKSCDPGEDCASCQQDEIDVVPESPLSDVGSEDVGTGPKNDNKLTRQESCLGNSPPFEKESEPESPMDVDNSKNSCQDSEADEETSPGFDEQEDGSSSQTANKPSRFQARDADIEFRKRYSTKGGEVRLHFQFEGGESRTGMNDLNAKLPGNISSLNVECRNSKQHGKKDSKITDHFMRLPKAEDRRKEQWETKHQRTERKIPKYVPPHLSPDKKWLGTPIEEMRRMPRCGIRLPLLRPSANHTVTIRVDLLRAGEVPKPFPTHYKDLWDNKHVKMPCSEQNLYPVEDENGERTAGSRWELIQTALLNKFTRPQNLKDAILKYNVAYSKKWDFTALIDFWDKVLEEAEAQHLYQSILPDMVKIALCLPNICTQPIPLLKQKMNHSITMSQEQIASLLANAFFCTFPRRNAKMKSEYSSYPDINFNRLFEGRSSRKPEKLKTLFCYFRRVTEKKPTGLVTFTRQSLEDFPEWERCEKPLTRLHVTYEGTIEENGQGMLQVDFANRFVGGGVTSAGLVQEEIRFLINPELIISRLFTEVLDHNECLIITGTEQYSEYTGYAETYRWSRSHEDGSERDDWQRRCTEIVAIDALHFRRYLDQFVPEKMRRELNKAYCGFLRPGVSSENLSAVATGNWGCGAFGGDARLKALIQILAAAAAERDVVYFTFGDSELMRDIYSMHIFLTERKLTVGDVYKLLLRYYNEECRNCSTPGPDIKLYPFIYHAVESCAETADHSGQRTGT

pIC50 [1] | SMILES | pIC50 (Kuramochi cell line)
> 7.00 | N#CC1(NS(=O)(=O)c2ccc3c4c(N5CCN6CCC[C@H]6C5)ncnc4n(-c4nnc(C(F)F)s4)c3c2)CC1 [Example 160, (S)—N-(1-Cyanocyclopropyl)-9-(5-(difluoromethyl)-1,3,4-thiadiazol-2-yl)-4-(hexahydropyrrolo[1,2-a]pyrazin-2(1H)-yl)-9H-pyrimido[4,5-b]indole-7-sulfonamide] | > 7.00
> 7.00 | CC(C)N1CCN(c2ncnc3c2c2ccc(S(=O)(=O)NC4(C#N)CC4)cc2n3-c2nnc(C(F)F)s2)CC1=O [Example 180, N-(1-Cyanocyclopropyl)-9-(5-(difluoromethyl)-1,3,4-thiadiazol-2-yl)-4-(4-isopropyl-3-oxopiperazin-1-yl)-9H-pyrimido[4,5-b]indole-7-sulfonamide] | > 7.00
> 7.00 | N#CC1(NS(=O)(=O)c2ccc3c4c(N5CCN(C(=O)N6CCCC6)CC5)ncnc4n(-c4nnc(C(F)F)s4)c3c2)CC1 [Example 41, N-(1-Cyanocyclopropyl)-9-(5-(difluoromethyl)-1,3,4-thiadiazol-2-yl)-4-(4-(pyrrolidine-1-carbonyl)piperazin-1-yl)-9H-pyrimido[4,5-b]indole-7-sulfonamide] | > 7.00
> 7.00 | N#CC1(NS(=O)(=O)c2ccc3c4c(C5CCC(O)CC5)ncnc4n(-c4nnc(C(F)F)s4)c3c2)CC1 (centres unmarked) [Example 85, N-(1-Cyanocyclopropyl)-9-(5-(difluoromethyl)-1,3,4-thiadiazol-2-yl)-4-(4-hydroxycyclohexyl)-9H-pyrimido[4,5-b]indole-7-sulfonamide] | > 7.00
> 7.00 | N#CC1(NS(=O)(=O)c2ccc3c4c(N5CCN(C(=O)C6CCOC6)CC5)ncnc4n(-c4nnc(C(F)F)s4)c3c2)CC1 (centres unmarked) [Example 34, N-(1-Cyanocyclopropyl)-9-(5-(difluoromethyl)-1,3,4-thiadiazol-2-yl)-4-(4-(tetrahydrofuran-3-carbonyl)piperazin-1-yl)-9H-pyrimido[4,5-b]indole-7-sulfonamide] | > 7.00
> 7.00 | CC1(NS(=O)(=O)c2ccc3c4c(C5CCN(C(=O)N6CC[C@H](O)C6)CC5)ncnc4n(-c4nnc(C(F)F)s4)c3c2)CC1 [Example 131, (S)-9-(5-(Difluoromethyl)-1,3,4-thiadiazol-2-yl)-4-(1-(3-hydroxypyrrolidine-1-carbonyl)piperidin-4-yl)-N-(1-methylcyclopropyl)-9H-pyrimido[4,5-b]indole-7-sulfonamide] | > 7.00
> 7.00 | CC(C)CN1CCN(c2ncnc3c2c2ccc(S(=O)(=O)NC4(C#N)CC4)cc2n3-c2nnc(C(F)F)s2)CC1=O [Example 158, N-(1-cyanocyclopropyl)-9-(5-(difluoromethyl)-1,3,4-thiadiazol-2-yl)-4-(4-isobutyl-3-oxopiperazin-1-yl)-9H-pyrimido[4,5-b]indole-7-sulfonamide] | > 7.00
> 7.00 | N#CC1(NS(=O)(=O)c2ccc3c4c(N5C[C@H]6COC[C@H]6C5)ncnc4n(-c4nnc(C(F)F)s4)c3c2)CC1 [Example 169, N-(1-Cyanocyclopropyl)-9-(5-(difluoromethyl)-1,3,4-thiadiazol-2-yl)-4-((3aR,6aS)-tetrahydro-1H-furo[3,4-c]pyrrol-5(3H)-yl)-9H-pyrimido[4,5-b]indole-7-sulfonamide] | > 7.00
> 7.00 | C[C@H]1CN(c2ncnc3c2c2cc(F)c(S(=O)(=O)NC4(C)CC4)cc2n3-c2nnc(C(F)F)s2)CCN1C(=O)N(C)C [Example 102, (S)-4-(9-(5-(Difluoromethyl)-1,3,4-thiadiazol-2-yl)-6-fluoro-7-(N-(1-methylcyclopropyl)sulfamoyl)-9H-pyrimido[4,5-b]indol-4-yl)-N,N,2-trimethylpiperazine-1-carboxamide] | > 7.00
> 7.00 | C[C@H]1CN(c2ncnc3c2c2ccc(S(=O)(=O)NC4(C#N)CC4)cc2n3-c2nnc(C(F)F)s2)CCN1CC#N [Example 205, (S)—N-(1-Cyanocyclopropyl)-4-(4-(cyanomethyl)-3-methylpiperazin-1-yl)-9-(5-(difluoromethyl)-1,3,4-thiadiazol-2-yl)-9H-pyrimido[4,5-b]indole-7-sulfonamide] | > 7.00

More lines, now with the values behind:

SMILES | pIC50 [1] | pIC50 (Kuramochi cell line)
COC[C@H]1CN(c2ncnc3c2c2ccc(S(=O)(=O)NC4(C#N)CC4)cc2n3-c2nnc(C(F)F)s2)CCN1C [Example 204, (R)—N-(1-Cyanocyclopropyl)-9-(5-(difluoromethyl)-1,3,4-thiadiazol-2-yl)-4-(3-(methoxymethyl)-4-methylpiperazin-1-yl)-9H-pyrimido[4,5-b]indole-7-sulfonamide] | > 7.00 | > 7.00
C[C@@H]1CN(C(=O)N(C)C)[C@@H](C)CN1c1ncnc2c1c1cc(F)c(S(=O)(=O)NC3(C#N)CC3)cc1n2-c1nnc(C(F)F)s1 [Example 45, (2S,5R)-4-(7-(N-(1-Cyanocyclopropyl)sulfamoyl)-9-(5-(difluoromethyl)-1,3,4-thiadiazol-2-yl)-6-fluoro-9H-pyrimido[4,5-b]indol-4-yl)-N,N,2,5-tetramethylpiperazine-1-carboxamide] | > 7.00 | > 7.00
N#CC1CCN(c2ncnc3c2c2ccc(S(=O)(=O)NC4(C#N)CC4)cc2n3-c2nnc(C(F)F)s2)CC1 [Example 49, N-(1-Cyanocyclopropyl)-4-(4-cyanopiperidin-1-yl)-9-(5-(difluoromethyl)-1,3,4-thiadiazol-2-yl)-9H-pyrimido[4,5-b]indole-7-sulfonamide] | > 7.00 | > 7.00
CC(C)C(=O)N1C[C@@H](C)N(c2ncnc3c2c2ccc(S(=O)(=O)NC4(C)CC4)cc2n3-c2nnc(C(F)F)s2)C[C@@H]1C [Example 64, 9-(5-(Difluoromethyl)-1,3,4-thiadiazol-2-yl)-4-((2R,5S)-4-isobutyryl-2,5-dimethylpiperazin-1-yl)-N-(1-methylcyclopropyl)-9H-pyrimido[4,5-b]indole-7-sulfonamide] | > 7.00 | > 7.00
CN(C)C(=O)N1CCC(c2ncnc3c2c2cc(F)c(S(=O)(=O)NC4(C)CC4)cc2n3-c2nnc(C(F)F)s2)CC1 [Example 82, 4-(9-(5-(Difluoromethyl)-1,3,4-thiadiazol-2-yl)-6-fluoro-7-(N-(1-methylcyclopropyl)sulfamoyl)-9H-pyrimido[4,5-b]indol-4-yl)-N,N-dimethylpiperidine-1-carboxamide] | > 7.00 | > 7.00
CO[C@@H]1CCN(c2ncnc3c2c2ccc(S(=O)(=O)NC4(C#N)CC4)cc2n3-c2nnc(C(F)F)s2)C[C@@H]1F [Example 171, N-(1-Cyanocyclopropyl)-9-(5-(difluoromethyl)-1,3,4-thiadiazol-2-yl)-4-((3S,4R)-3-fluoro-4-methoxypiperidin-1-yl)-9H-pyrimido[4,5-b]indole-7-sulfonamide] | > 7.00 | > 7.00
N#CC1(NS(=O)(=O)c2ccc3c4c(N5CCC(O)CC5)ncnc4n(-c4nnc(C(F)F)s4)c3c2)CC1 [Example 189, N-(1-Cyanocyclopropyl)-9-(5-(difluoromethyl)-1,3,4-thiadiazol-2-yl)-4-(4-hydroxypiperidin-1-yl)-9H-pyrimido[4,5-b]indole-7-sulfonamide] | > 7.00 | > 7.00
CN(C)C1CCN(c2ncnc3c2c2ccc(S(=O)(=O)NC4(C#N)CC4)cc2n3-c2nnc(C(F)F)s2)C[C@@H]1F (stereo partly drawn) [Example 175, N-(1-cyanocyclopropyl)-9-(5-(difluoromethyl)-1,3,4-thiadiazol-2-yl)-4-((3S)-4-(dimethylamino)-3-fluoropiperidin-1-yl)-9H-pyrimido[4,5-b]indole-7-sulfonamide] | > 7.00 | > 7.00
CC1(NS(=O)(=O)c2ccc3c4c(N5CCN6CCOC[C@H]6C5)ncnc4n(-c4nnc(C(F)F)s4)c3c2)CC1 [Example 184, (R)-9-(5-(Difluoromethyl)-1,3,4-thiadiazol-2-yl)-4-(hexahydropyrazino[2,1-c][1,4]oxazin-8(1H)-yl)-N-(1-methylcyclopropyl)-9H-pyrimido[4,5-b]indole-7-sulfonamide] | > 7.00 | 6.00 to 7.00
N#CC1(NS(=O)(=O)c2ccc3c4c(N5CCC6(CCOC6)CC5)ncnc4n(-c4nnc(C(F)F)s4)c3c2)CC1 [Example 183, N-(1-Cyanocyclopropyl)-9-(5-(difluoromethyl)-1,3,4-thiadiazol-2-yl)-4-(2-oxa-8-azaspiro[4.5]decan-8-yl)-9H-pyrimido[4,5-b]indole-7-sulfonamide] | > 7.00 | > 7.00
N#CC1(NS(=O)(=O)c2ccc3c4c(C5CCN(C(=O)N6CCOCC6)CC5)ncnc4n(-c4nnc(C(F)F)s4)c3c2)CC1 [Example 140, N-(1-cyanocyclo-propyl)-9-(5-(difluoromethyl)-1,3,4-thiadiazol-2-yl)-4-(1-(morpholine-4-carbonyl)piperidin-4-yl)-9H-pyrimido [4,5-b]indole-7-sulfonamide] | > 7.00 | > 7.00
C[C@@H]1CN(c2ncnc3c2c2ccc(S(=O)(=O)NC4(C#N)CC4)cc2n3-c2nnc(C(F)F)s2)CCN1C(=O)C1CCC1 [Example 5, (R)-N-(1-Cyanocyclopropyl)-4-(4-(cyclobutanecarbonyl)-3-methylpiperazin-1-yl)-9-(5-(difluoromethyl)-1,3,4-thiadiazol-2-yl)-9H-pyrimido[4,5-b]indole-7-sulfonamide] | > 7.00 | 6.00 to 7.00
